Patent US10912741B2, “Prevention of liver cancer with safranal-based formulations” (United Arab Emirates University, priority 2019, dated 2021)

Legend:
[1] = tested on: human prostate cancer PC-3 cell lines; conditions: PC-3 cell line, reported in the background; cited from earlier work
[2] = tested on: caspase-cleaved fragment of cytokeratin18 (M30 CytoDeath); experiment: M30 CytoDeath staining of liver sections (early apoptosis); type: in vivo, albino Wistar rats
Procedure: The experimental hepatocarcinogenesis model was developed according to a protocol by Espandiaria et al. that was adapted for our purposes. To initiate and promote hepatocarcinogenesis, diethylnitrosamine (DEN) and 2-acetylaminofluorene (2-AAF) were used, respectively. For hepatocarcinogenesis initiation in this model, a single DEN dose (200 mg/kg b.wt.) dissolved in saline was injected intraperitoneally. After initiation, all rats underwent one period of 5-days fasting, as mitotic proliferative stimuli. To promote hepatocarcinogenesis, 2-acetylaminofluorene (2-AAF) was introduced in the form of six daily intragastric doses (30 mg/kg in 1% Tween 80); two weeks after DEN treatment.
Safranal at doses of 25 mg/kg by weight (b.wt.) and 50 mg/kg b.wt, was administrated orally to rats. These doses have been reported to suppress chemically-induced oxidative damage in rats. […]
TUNEL assay was performed for the purpose of assessing apoptosis. […] DNA fragmentation, a key indicator of apoptosis, is detected using this kit. […]
For immunohistochemical staining, mounted sections were immersed in sodium citrate buffer (0.1 M, pH 6) and placed in a water bath for 15 minutes to unmask antigen epitopes. […] Ten fields were randomly selected to quantify positive cells, in individual samples (400×). […]

In the case of `CC1=C(C=O)C(C)(C)CC=C1` [Safranal, 2,6,6-trimethylcyclohexa-1,3-diene-1-carbaldehyde], the apoptosis [1] is listed as “induce apoptosis”, the “number of M30 CytoDeath-positive cells” value ([2]; low/high doses of safranal in animals exposed to DEN, compared to group 3) is listed as “significant increase in the number of both TUNEL- and M30 CytoDeath-positive cells” and the “number of M30 CytoDeath-positive cells” value ([2]; safranal only (group 2), compared to control group) is listed as “did not exhibit a notable change”.
